Test results reported in patent publication US7226741B2, “Multimerization of HIV-1 Vif protein as a therapeutic target” (priority 2001, dated 2007).

Molecular target: T1, HIV-1 Vif protein (Vif-Vif interaction) (Human immunodeficiency virus type 1 group M subtype B, UniProt P12504)
T1 construct: The vif gene also was inserted into pGEX vector for in vitro expression and isolation of GST-Vif fusion protein; The PCR-generated wild-type vif gene and its mutants were then inserted into pCITE-4a vector; made in house; host or cells: GST-Vif: E. coli BL21 (pGEX); 35S-Vif: in vitro translation from pCITE-4a (Novagen kit)
T1 sequence (P12504 whole entry, the tested form may be a part): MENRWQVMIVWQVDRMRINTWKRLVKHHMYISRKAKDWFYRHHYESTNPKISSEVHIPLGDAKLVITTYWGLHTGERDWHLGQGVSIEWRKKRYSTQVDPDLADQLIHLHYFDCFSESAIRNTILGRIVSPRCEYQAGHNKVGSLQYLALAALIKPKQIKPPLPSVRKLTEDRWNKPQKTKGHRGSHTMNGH
Type: binding
Details: for 35S-Vif binds with GST-Vif (%) Mean ± SD: peptide added to the Vif-Vif binding reaction, no peptide (GST pull-down) designated as 100%; for Inhibition of Vif-Vif interaction (in words): synthesized peptides added into the reaction system for Vif-Vif binding, in vitro
Experimental: The vector pGEX, with or without the vif gene, was transformed into BL21 competent cells (Novagen, Madison, Wis.). After growth at 37° C. to approximately 0.6 O.D., the expression of GST or GST-Vif proteins was induced by 0.4 mM isopropylthio-β-D-galactoside (IPTG). The bacterial cells were lyzed by adding lysing buffer (1% Triton-X-100, 0.1 mg/ml lysozyme, 2 mM EDTA, 1 mM PMSF, 2 μg/ml leupeptin, and 1 μg/ml aprotinin), followed by sonication. The sample was pelleted at 12,000 g for 10 min at 4° C., and the supernatant was applied to a glutathione-conjugated agarose bead (Sigma, St. Louis, Mo.) column. After batch binding, the matrix was washed three times, each time by the addition of 10 bed volumes of phosphorus-buffer saline (PBS). The GST or GST-Vif conjugated agarose beads were then aliquoted and stored at −20° C. Conversely, ^35S-labeled Vif or its mutant proteins were synthesized utilizing SPT3 kits (Novagen, Madison, Wis.). The protocol supplied by the manufacturer was followed. After in vitro translation, RNase A (0.2 mg/ml) was added to stop the reaction and remove tRNAs and the in vitro transcribed mRNA. The trichloroacetic acid (TCA)-insoluble radioactive amino acids were quantitated in the presence of a scintillation cocktail.
For GST pull-down assays, a GST or GST-Vif conjugated bead slurry was mixed with ^35S-labeled Vif or its mutants (50,000 cpm) in a binding buffer [150 mM NaCl, 20 mM Tris-HCl (pH 7.5), 0.1% Triton-X-100]. After binding at 4° C. for 1 hour, the mixture was centrifuged at 3,000 g for 1 min, and the beads were washed three times with binding buffer. The ^35S-labeled Vif proteins were dissociated from the beads by adding SDS-containing loading buffer and heating at 95° C. for 5 minutes. The samples were then electrophoresized in SDS-PAGE gels (15% Tris-HCl ready gel made by Bio-Rad, Hercules, Calif.). After treatment with the fixing buffer (10% acetic acid, 10% methanol) and then the Amplify (Amersham-Pharmacia, Piscataway, N.J.), the gels were dried and exposed to X-ray film or quantitatively analyzed utilizing phosphor image (Molecular Dynamics, Sunnyview, Calif.).
A Vif-Vif binding assay was similar to the GST pull-down assays, except that the GST or GST-Vif conjugated bead slurry was mixed with ^35S-labeled Vif and the test peptides or molecules in the binding buffer. The results were compared to that from the GST pull-down assay, which was designated as 100%.

Sequence: ESAIRKAILGHIVSP [Vif117-131]
- 35S-Vif binds with GST-Vif (%) Mean ± SD: 94.5 ± 11.2%

Sequence: SNQGGSPLPRSV [VMI7]
- 35S-Vif binds with GST-Vif (%) Mean ± SD: 19.0 ± 2.2%
- Inhibition of Vif-Vif interaction (in words): significantly inhibit Vif-Vif interaction

Sequence: SVSVGMKPSPRP (Synthetic peptide containing PXP motif) [VMI5, 12-mer peptide containing a PXP motif]
- 35S-Vif binds with GST-Vif (%) Mean ± SD: 36.3 ± 5.1%

Sequence: PPLPSVTKLTEDRWN [Vif161-175]
- 35S-Vif binds with GST-Vif (%) Mean ± SD: 70.2 ± 5.5%
- Inhibition of Vif-Vif interaction (in words): able to inhibit the Vif-Vif interaction

Sequence: LPLPAPSFHRTT [VMI9]
- 35S-Vif binds with GST-Vif (%) Mean ± SD: 22.0 + 6.2%
- Inhibition of Vif-Vif interaction (in words): significantly inhibit Vif-Vif interaction

Sequence: KPKKIKPPLPSV [Vif155-166]
- 35S-Vif binds with GST-Vif (%) Mean ± SD: 57.1 ± 8.7%
- Inhibition of Vif-Vif interaction (in words): able to inhibit the Vif-Vif interaction

Sequence: KKIKPPLPSVTKLTE [Vif157-171]
- 35S-Vif binds with GST-Vif (%) Mean ± SD: 49.2 ± 2.5%
- Inhibition of Vif-Vif interaction (in words): able to inhibit the Vif-Vif interaction
